Like-named read-outs stand apart in the source and are kept apart here.
Columns and labels:
[1] = system: Pentobarbital-Induced Cardiac Failure in the Dog; experiment: Pentobarbital-induced Cardiac Failure in the Dog; format: in vivo; details: Canis lupus familiaris, iv, anesthetized dog, read-out: ED50 (dose i.v. to give a 50% increase in dP/dt)
Method: Pentobarbital-induced Cardiac Failure in the Dog
A dog of either sex was anesthetized with Na pentobarbital, 30-35 mg/kg i.v. The trachea was intubated and the animal was respired at a rate of 20 breaths/min (stroke volume=15 cc/kg). Both femoral veins were cannulated. One cannula was used for infusion of pentobarbital to induce and maintain failure, the other for injection of test compounds. A cannual was inserted into the aorta via a femoral artery and the cannula was attached to a blood pressure transducer for measurement of systolic, diastolic and mean aortic blood pressure. A Millar pressure-tip catheter was inserted into the other femoral artery and advanced into the left ventricle to record intraventricular pressure and dP/dt. Subdermal needle electrodes were used to record a lead II electrocardiogram and heart rate.
Following a stabilization period of at least 30 min, experimental failure was induced by the i.v. infusion of Na pentobarbital, 0.75 mg/kg/min in 0.2 mL of saline/min, until a 40-50% decrease in peak positive dP/dt was obtained. The failure state was maintained at this level throughout the experiment by continuous infusion of Na pentobarbital, 0.11-0.15 mg/kg/min. Once the maintenance infusion was started, at least 15 min were allowed to elapse before test drugs were administered.
Test compounds were prepared in N saline. Increasingly higher doses were given i.v. at 30 min-1 hr intervals in order to determine a therapeutic (50% increase in dP/dt) to toxic (appearance of arrhythmias) ratio where possible.
Using this method, the following representative compounds of formula I were effective for increasing the cardiac contractility of the heart (the amount of test compound in mg per kg of body weight administered i.v. to give a 50% increase in dP/dt.

[2] = system: Isolated Cat Papillary Muscle; experiment: Test for Cardiotonic Activity in Isolated Cat Papillary Muscle; format: cell-based; details: Felis catus; for EC50: increase in force of contraction, stimulated at 0.5 Hz, 37° C.; for activation at 100 µM: read-out: % increase (force of contraction)
Method: Test for Cardiotonic Activity in Isolated Cat Papillary Muscle
A cat of either sex was anesthetized with Na pentobarbital, 25-30 mg/kg i.v. The heart was rapidly removed and placed in cool Tyrode's solution which had been equilibrated with 95% O2 -5% CO2. The right ventricle was opened by cutting down the sides and around the apex so that the free wall could be folded back on the atriventricular groove. Usually at least three suitably-sized papillary muscles were found (1 mm or less in thickness). Threads were tied around the chordae tendonae and the base of the muscle just above its point of insertion into the ventricular wall. The chordae were cut, and the muscle was removed along with a small button of ventricular wall. If a sufficient number of papillary muscles were not present, trabeculae carnae could also be used. The best ones were usually found inserting just under the valve.
The preparations were mounted in tissue baths containing Tyrode's solution at 37° C. bubbled with 95% O2 -5% CO2. One thread was affixed to a tissue holder incorporating a pair of platinum electrodes and the other thread was attached to a force displacement transducer. Initial tension placed on the preparation was 0.2 g (less for very small muscles). The preparations were stimulated with square-wave pulses, 2-4 msec. in duration and 10% above threshold voltage, at a rate of 0.5 Hz. […] The preparations were then allowed to equilibrate for one hour with frequent changes of the bathing fluid (10-15 min. intervals). The test compound was added to the bath in 0.1 mL of vehicle and incubated with the preparation for 15 min. or until peak effect was attained.
Using this method, the following representative compounds of formula I were effective for increasing the force of contraction of the papillary muscle.

| SMILES | EC50 [2] | ED50 [1] | other results |
| --- | --- | --- | --- |
| Cc1nc(=O)c(C)c(NCCc2cccn2C)[nH]1 [Example 2, 1,4-Dihydro-2,5-dimethyl-6-[[2-(1-methyl-1H-pyrrol-2-yl)ethyl]amino]-4-pyrimidinone] | 2.9 µM |  |  |
| Cc1nc(=O)c(C)c(NCc2cccnc2)[nH]1 [Example 5, 1,4-Dihydro-2,5-dimethyl-6-[(3-pyridinylmethyl)amino]-pyrimidine-4-one] | 11 µM | 0.05 mg/kg |  |
| Cc1nc(=O)c(F)c(NCc2cccnc2)[nH]1 [Example 6, 5-Fluoro-1,4-dihydro-2-methyl-6-[(3-pyridinylmethyl)amino]-4-pyrimidinone] |  |  | activation at 100 µM ([2]; at 10^-4 M): 69% |
| Cc1nc(O)c(C)c(NCCc2ccncc2)n1 [Example 8, 2,5-Dimethyl-6-[(2-(4-pyridinyl)ethyl)amino]-4-pyrimidinol] |  |  | activation at 100 µM ([2]; at 10^-4 (unit inferred)): 52% |
| Cc1nc(O)c(Br)c(NCCc2ccccc2)n1 [Example 9, 5-Bromo-2-methyl-6-[(2-phenylethyl)amino]-4-pyrimidinol] |  | 0.03 mg/kg | EC50 ([2]; unit inferred): 13 µM |
| Cc1nc(O)c(Br)c(NCCc2ccncc2)n1 [Example 10, 5-Bromo-2-methyl-6-[[2-(4-pyridinyl)ethyl]amino]-4-pyrimidinol] |  |  | EC50 ([2]; unit inferred): 250 µM |
| CCNc1nc(C)nc(O)c1C [Example 12, 6-(Ethylamino)-2,5-dimethyl-4-pyrimidinol] | 5 µM | 0.04 mg/kg |  |
| Cc1nc(O)c(C)c(NCC2CC2)n1 [Example 13, 6-[(Cyclopropylmethyl)amino]-2,5-dimethyl-4-pyrimidinol] | 3.7 µM | 0.05 mg/kg |  |
| CCNc1nc(C)nc(O)c1C(C)C [Example 14, 6-(Ethylamino)-2-methyl-5-(1-methylethyl)-4-pyrimidinol] |  | 0.04 mg/kg | activation at 100 µM ([2]; at 10^-4 M): 86% |
| CCNc1[nH]c(C)nc(=O)c1Br [Example 15, 5-Bromo-1,4-dihydro-6-(ethylamino)-2-methyl-4-pyrimidinone] | 2.8 µM | 0.01 mg/kg |  |
| Cc1nc(O)c(Br)c(NCCO)n1 [Example 16, 5-Bromo-6-[(2-hydroxyethyl)amino]-2-methyl-4-pyrimidinol] | 8.2 µM |  |  |
| Cc1nc(O)c(C(C)C)c(NCC2CC2)n1 [Example 17, 6-[(Cyclopropylmethyl)amino]-2-methyl-5-(1-methylethyl)-4-pyrimidinol] |  | 0.5 mg/kg | activation at 100 µM ([2]; at 10^-4 M): 185% |

Continued, in another order:

| EC50 [2] | SMILES | ED50 [1] | other results |
| --- | --- | --- | --- |
| 2.5 µM | Cc1nc(O)c(Br)c(NCc2cccnc2)n1 [Example 1, 5-Bromo-2-methyl-6-[(3-pyridinylmethyl)amino]-4-pyrimidinol] | 0.012 mg/kg |  |
| 1 µM | Cc1nc(O)c(Cl)c(NCc2cccnc2)n1 [Example 3, 5-Chloro-2-methyl-6-[(3-pyridinylmethyl)amino]-4-pyrimidinol] | 0.02 mg/kg |  |
| 1.5 µM | Cc1nc(O)c(Cl)c(NCCc2ccccc2)n1 [Example 4, 5-Chloro-2-methyl-6-[(2-phenylethyl)amino]-4-pyrimidinol] | 0.04 mg/kg |  |
| 7.4 µM | Cc1nc(O)c(C(C)C)c(NCc2cccnc2)n1 [Example 7, 2-Methyl-5-(1-methylethyl)-6-[(3-pyridinylmethyl)amino]-4-pyrimidinol] | 0.13 mg/kg |  |
| 10 µM | Cc1nc(O)c(C)c(NCc2ccco2)n1 [Example 11, 6-[(2-Furanylmethyl)amino]-2,5-dimethyl-4-pyrimidinol] |  |  |

Reference: patent US4617393A, “5-substituted-6-aminopyrimidines, composition and uses as cardiotonic agents for increasing cardiac contractility” (American Home Products Corporation, priority 1985, dated 1986)
